Read-outs that look alike come from different tables or passages of the source.
Experiments:
X-ray irradiated mice = assay: Radiation dermatitis murine model (thoracic X-ray irradiation); format: in vivo, C57BL/6 mice
Method: Animals were irradiated in the RS2000 small animal irradiator. The RS2000 provides a cone-shaped radiation field with irradiation at 12.39-40.50 cm from the X-ray source. For dose measurements, irradiation was performed with the following settings: 160 kVp, 25 mA, 90 s irradiation time and 0.3 mm Cu beam filtration. The approximate HVL provided by the manufacturer was 0.62 mm Cu. […] A custom lead shield was placed on the floor of the irradiator, with the mouse thoracic region ˜43.75 cm from the X-ray source. Dose measurements were conducted twice to account for set-up error and reproducibility. […] The dose rate was reported for each aperture position 1-4 as an absorbed dose rate to water (ADRW, Gy/min) and the two repeated measurements were averaged.
Mice (12-14 weeks of age) were anesthetized using inhaled anesthesia (isoflurane), and the fur was clipped on the dorsal side of the thoracic region. […] Animals were then anesthetized with injected anesthesia (150 mg/kg ketamine/18 mg/kg xylazine) and placed in Lucite jigs for exposure to 16.5 Gy thoracic irradiation in the RS2000 X-ray irradiator as previously described [19].
Animals were monitored daily for 85 days post-irradiation for both radiation dermatitis and combined injury models. Radiation dermatitis was separately scored for hair loss, erythema, scale, and ulceration. Scoring for erythema, scale and ulceration were previously described: 0=none; 1=minimal; 2=mild; 3=moderate; 4=marked [19]. Because all animals underwent fur clipping prior to irradiation and wounding, scoring for hair loss was determined as failure to regrow hair in the irradiated areas: 0=none; 1=minimal; 2=mild; 3=moderate; 4=marked. Animals were photographed for the measurement of wounds and for dermatitis scoring. […] Weight was measured as an indication of overall health.

[1] = system: X-ray irradiated and wounded mice; assay: Combined injury murine model (thoracic X-ray irradiation plus wound); format: in vivo, C57BL/6 mice
Excerpt: The C57BL/6 strain of mice has been utilized extensively for the study of radiation-induced skin injuries. We determined that 16 Gy is the minimal dosage for the induction of radiation burns in C57BL/6 mice that are not repaired within 45 days. Sham irradiated mice without wounds were used as controls for radiation dermatitis, and treated identically as irradiated mice. Wounded mice, without radiation, were used as controls for combined injury.
Animals were irradiated in the RS2000 small animal irradiator. The RS2000 provides a cone-shaped radiation field with irradiation at 12.39-40.50 cm from the X-ray source. For dose measurements, irradiation was performed with the following settings: 160 kVp, 25 mA, 90 s irradiation time and 0.3 mm Cu beam filtration. The approximate HVL provided by the manufacturer was 0.62 mm Cu. The University of Wisconsin Medical Radiation Research Center (UW MRRC) provided eight acrylic mouse phantoms with three (1×1×1 mm) Harshaw thermoluminenscence dosimeter (TLD)-100 microcubes (ThermoElectron Corp., Oakwood Village, OH) embedded in each phantom. The cylindrical phantom had dimensions of 27 mm in diameter (D)×65 mm in length (L) and was stabilized by a cylindrical insert 15 mm (D)×27 mm (L) with a 3 mm thick stand. A custom lead shield was placed on the floor of the irradiator, with the mouse thoracic region ˜43.75 cm from the X-ray source. Dose measurements were conducted twice to account for set-up error and reproducibility. TLDs were processed at UW MRRC using a national standard with an expanded uncertainty (k=2) of 5%. The dose rate was reported for each aperture position 1-4 as an absorbed dose rate to water (ADRW, Gy/min) and the two repeated measurements were averaged.
Mice (12-14 weeks of age) were anesthetized using inhaled anesthesia (isoflurane), and the fur was clipped on the dorsal side of the thoracic region. Two days after fur clipping, mice to be used for combined injury were given acetaminophen (150 mg/kg in 0.5 ml sterile saline) by gavage. Animals were then anesthetized with injected anesthesia (150 mg/kg ketamine/18 mg/kg xylazine) and placed in Lucite jigs for exposure to 16.5 Gy thoracic irradiation in the RS2000 X-ray irradiator as previously described. For combined injury, immediately following thoracic irradiation and while still under anesthesia, the area of the skin was scrubbed with betadine or chlorhexidine, followed by cleaning with an alcohol pad. A 9/16 inch diameter punch biopsy tool was used to create a 1 cm wound in the central dorsal thoracic region, roughly in the center of the field of radiation exposure. The panniculus carnosus muscle and overlying skin will be removed. The wound will be left open to air. The size of the wound approximates 15% of the total body skin surface.
TSN6 peptide (5 μg/day in 50 μl sterile saline) or hepatocyte growth factor (HGF; 3.3 μg/day in 50 μl sterile saline) or vehicle (sterile saline, 50 μl) were injected subcutaneously on days 2, 7 and 10 post-irradiation. Injections were made caudal, adjacent to the irradiated or irradiated/wounded area.
Animals were monitored daily for 85 days post-irradiation for both radiation dermatitis and combined injury models. Radiation dermatitis was separately scored for hair loss, erythema, scale, and ulceration. Scoring for erythema, scale and ulceration were previously described: 0=none; 1=minimal; 2=mild; 3=moderate; 4=marked. Because all animals underwent fur clipping prior to irradiation and wounding, scoring for hair loss was determined as failure to regrow hair in the irradiated areas: 0=none; 1=minimal; 2=mild; 3=moderate; 4=marked. Animals were photographed for the measurement of wounds and for dermatitis scoring. […] Weight was measured as an indication of overall health.

[2] = system: dermal papilla (DP) cells; assay: Cell viability assay (MTT); format: cell-based; conditions: treated for four days, in vitro
Method: Cell viability assay: Keratinocytes and dermal papilla cells were plated at 4000 and 2000 cells/well respectively in a 96 well plate with six replicates and cultured overnight. The media was changed and appropriate treatment-vehicle, scrambled peptide or active peptide—was added to the well. The media were changed with fresh media containing peptides 2 days after initial treatment, and the total culture period was 4 days. The cell viability was then measured using CellTiter […] Non-Radioactive Cell Proliferation Assay (MTT) (Promega Corporation). Briefly, 15 μL of dye solution was added to each well and incubated for 4 h at 37° C. and 5% CO2. Next 100 μL of stop solution was added to the mixture, incubated for an hour and absorbance was recorded at 570 nm using a plate reader.
Materials and Methods: Cultured dermal papilla (DP) cells, specialized skin fibroblasts isolated from the base of hair follicles, were treated with TSN18 for four days. Cell viability was measured using the CellTiter 96 Non-radioactive cell proliferation assay (MTT) kit. Alkaline phosphatase activity, a marker of trichogenicity was measured with the alkaline phosphatase yellow (pNPP) liquid substrate system for ELISA. […] The bandages were changed at two weeks and removed after four weeks and the grafts were monitored through 10 weeks. […]

dermal papilla cells = assay: Alkaline phosphatase activity (marker of trichogenicity) in cultured cells; format: cell-based; conditions: TSN18, treated for four days, in vitro
Method: Dermal papilla cells regulate hair follicle development and growth, unfortunately, maintaining dermal papilla cells inductive capacity is difficult in culture, as evident by their gradual loss of alkaline phosphatase activity in culture^3. To test if TSN peptides can increase alkaline phosphatase activity keratinocytes and dermal papilla cells were plated at 4000 and 2000 cells/well respectively in a 96 well plate with six replicates and cultured overnight. The media was changed and appropriate treatment-vehicle, scrambled peptide or active peptide—was added to the well. The media were changed with fresh media containing peptides 2 days after initial treatment, and the total culture period was 4 days, following which alkaline phosphatase activity was measured (FIG. 1). […]
Alkaline Phosphatase activity: Keratinocytes and dermal papilla cells were plated at 4000 and 2000 cells/well respectively in a 96 well plate with six replicates and cultured overnight. […] Alkaline phosphatase activity was measured according to manufacturer's instructions using Alkaline Phosphatase Yellow (pNPP) Liquid Substrate System for ELISA (Sigma Aldrich).
Materials and Methods: Cultured dermal papilla (DP) cells, specialized skin fibroblasts isolated from the base of hair follicles, were treated with TSN18 for four days. […] Graft sizes were measured by tracing the grafts and area determined using ImageJ (NIH) software.

mice with CI = assay: Combined injury (CI) pilot study with active or scrambled peptide; format: in vivo, C57BL/6 mouse; conditions: s.c. near wound on days 2, 7, 10 post-irradiation; 5 mice per group (FIG. 15)
Excerpt: Mice were exposed to thoracic X-ray irradiation without excision wounding to induce CRI, and with an experimental excision wound within the irradiated region to induce CI. Animals were scored by researchers blinded to the treatment groups. Photographic documentation was made for each experiment. We evaluated the rate of wound healing from days 1-30 post-irradiation, and the severity of dermatitis was scored using four variable measures (erythema, scale, hair loss, and ulceration) in the mice from 14 days post-irradiation (dpi) until necropsy. Specific cellular and protein expression changes were determined using western blotting and immunohistochemistry (IHC). To evaluate the efficacy of bioactive peptides, mice with CI were treated with active peptides or scrambled peptides (negative control) by subcutaneous injection near the wound site on days 2, 7, and 10 post-irradiation. Additionally, vehicle control CI animals received saline (vehicle for the peptides) injections in the same volumes on the same days.

[3] = system: wound re-epithelization and closure; conditions: in vitro, previous studies; cited from earlier work
[4] = system: wound re-epithelization and closure; conditions: in BALB/c mice, previous studies; cited from earlier work
grafted DECs = assay: Graft survival and size of TSN18-treated DECs grafted on nude mice; format: in vivo, Cr: NIH(S)-nu/nu mice
Method: Materials and Methods: Cultured dermal papilla (DP) cells, specialized skin fibroblasts isolated from the base of hair follicles, were treated with TSN18 for four days. Cell viability was measured using the CellTiter 96 Non-radioactive cell proliferation assay (MTT) kit. Alkaline phosphatase activity, a marker of trichogenicity was measured with the alkaline phosphatase yellow (pNPP) liquid substrate system for ELISA. A pilot study was performed to see whether incorporation of TSN18 active peptide in DECs improves graft survival or size. For the construction of DECs, human DP cells suspended in 1 mg/mL rat tail type I collagen were plated on inserts placed in six-well plates and incubated in media containing TSN18 active or scrambled peptide for 3 days. Subsequently, human neonatal foreskin keratinocytes were layered on top and the media changed to Epi medium containing TSN18 active or scrambled peptide for 2 days. […] The bandages were changed at two weeks and removed after four weeks and the grafts were monitored through 10 weeks. […] At the end of the experiment, the histological appearance of grafts was evaluated for the presence of a human stratified squamous epithelium and the presence or absence of human cells was assessed by staining for human leukocyte antigen. Graft sizes were measured by tracing the grafts and area determined using ImageJ (NIH) software.

[5] = 16.5 Gy, s.c. days 2, 7, 10 post-irradiation, TSN6 5 μg/day, HGF 3.3 μg/day, vs vehicle
[6] = 16.5 Gy plus wound, s.c. days 2, 7, 10, TSN6 5 μg/day, HGF 3.3 μg/day

Which results are given for “HGF: Hepatocyte growth factor, a pluripotent factor; a known adult tissue repair factor”?
ulceration score (X-ray irradiated mice; 16.5 Gy, s.c. days 2, 7, 10 post-irradiation, HGF 3.3 μg/day, vs vehicle): not markedly different; erythema score (X-ray irradiated mice; [5]): not markedly different; hair loss score (X-ray irradiated mice; [5]): not markedly different; radiation dermatitis (overall measures) (X-ray irradiated mice; [5]): did not improve any measures; scale score (X-ray irradiated mice; [5]): not markedly different; adipose layer in H&E histological sections (X-ray irradiated mice; skin 83 days post-irradiation, radiation alone): some improve preservation of the adipose layer; ulceration score ([1]; 16.5 Gy plus wound, HGF 3.3 μg/day s.c. days 2, 7, 10): somewhat exacerbate ulceration; characteristics of radiation dermatitis (hair loss, scale, erythema, ulceration) including combined score [1, 6]: did not improve any measure; rate of wound closure / wound repair [1, 6]: did not accelerate wound repair; adipose layer in histological sections ([1]; combined injury, 83 days post-irradiation): some improvement in the adipose layer in some animals

With “QPQPLPSPGVGGKN [TSN18, 14 aa combination of non-helical Collagen (VI) Alpha-3 chain regions]” as the substance, how does the “cell viability of DP cells” value [2] read?
Its value is “did not affect”.

What about the “alkaline phosphatase activity of DP cells” value (dermal papilla cells) of the same substance?
Its value is “did not affect”.

And the “decrease of severity of aggregate radiation dermatitis scores” value (mice with CI)?
The value was roughly 50%.

What about the “wound re-epithelization and closure” value [3] of the same substance?
Its value is “promoted wound re-epithelization and closure”.

What about the “wound re-epithelization and closure” value [4] of the same substance?
Its value is “promoted wound re-epithelization and closure”.

And the average graft size (grafted DECs; at 10 weeks, peptide 10 μM, ImageJ)?
Its average graft size is 16.4±5.4 mm2.

What about the “mice that retained the graft until 10 weeks” value (grafted DECs; peptide 10 μM in DECs, n=5 per group) of the same substance?
The value was “four out of five”.

Source: patent publication US20250276999A1, “PEPTIDES FOR PROMOTING HAIR FOLLICLE NEOGENESIS, AND PREVENTION/MITIGATION OF UNTOWARD EFFECTS OF RADIATION TREATMENT” (Trustees of Tufts College, priority 2022, published 2025)
